Results taken from patent US12227520B2 (priority 2019, dated 2025).
Read-outs that look alike come from different tables or passages of the source. Each block holds one compound with its values, some of them ahead of it.

Assays:
[1] = tested on: HIV-1 (IIIB); experiment: Antiviral assay in MT-4 cells (HIV MT-4 antiviral assay); format: cell-based; settings: Human immunodeficiency virus 1, IIIB, MT4, 120 h, HIV-1 (IIIB) in MT-4 cells, 5 days incubation
How it was run: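 MT-4 cells infected with HIV-1 IIIB (1:250 diluted stock) and exposed to 1:3 serially diluted compound in RPMI with 10% FBS. Viability read by CellTiter-Glo luminescence after 5 days at 37° C; mock-infected cells and 5 μM AZT as controls.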

[2] = tested on: pLai RLuc reporter virus; experiment: microbe, parasite or virus in culture; format: cell-based, HIV
Protocol: To quantify the amount of protein binding to human serum, compounds were serially diluted (1:3) in DMSO and acoustically transferred onto 384-well assay plates via a Labcyte ECHO robot. Each plate contained up to 8 test compounds, including negative and positive controls, (DMSO, 5 μM AZT respectively). Assay plates were prepared in duplicate, and tested in either CCM (cell culture media) or HS/CCM (human serum/cell culture media). MT-4 cells were first pre-infected with pLai RLuc reporter virus for 2 h at 37° C., then further diluted in either CCM (RPMI media, 10% FBS, 1% P/S) or HS/CCM (RPMI media, 10% FBS, 50% HS, 1% P/S), and subsequently added to each plate using a Biotek Micro Flow dispenser. After a 72-h incubation in a humidified and temperature controlled incubator (37° C.), Renilla Glo (Promega) was added to all assay plates and chemiluminescence read using an Envision plate-reader. […] To determine the amount of protein binding, EC50 fold shifts (or EC50 shifts) were calculated by dividing EC50 (HS/CCM)/EC50 (CCM).

[3] = Cytotoxicity assay in MT-4 cells; format: cell-based, human; settings: human
How it was run: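 Infected MT-4 cells (HIV-1 IIIB, fresh 1:250 dilution of concentrated stock) or mock-infected cells exposed to compounds for 5 days at 37 °C. Viability by CellTiter-Glo luminescence; 5 μM AZT positive control, no-drug negative control. Uninfected cells used for cytotoxicity, with 10 μM puromycin as base-level cytotoxicity control.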

[4] = Human immunodeficiency virus 1, 72 h, read-out: Antiviral Serum Shift RLuc 50% HS, HS/CCM (RPMI media, 10% FBS, 50% HS, 1% P/S), 72-h incubation
[5] = Human immunodeficiency virus 1, 72 h, read-out: Antiviral Serum Shift RLuc CCM, CCM (RPMI media, 10% FBS, 1% P/S), 72-h incubation
[6] = uninfected MT-4 cells, 5 days incubation, read-out: CC50

SMILES: O=C(NCc1c(F)cc(F)cc1F)c1cn2c(c(O)c1=O)C(=O)N1CC=CC[C@H]2C1 [Example 101, (7S)-12-hydroxy-1,11-dioxo-N-(2,4,6-trifluorobenzyl)-1,6,7,11-tetrahydro-3H-2,7-methanopyrido[1,2-a][1,4]diazonine-10-carboxamide]
EC50 ([1]; read-out: EC50): 1.52 nM
EC50 [2, 4]: 1.62 nM
EC50 [2, 5]: 0.22 nM
CC50 at 5 days [3, 6]: 19500 nM

SMILES: O=C(NCc1ccc(F)cc1F)c1cn2c(c(O)c1=O)C(=O)N1CCC[C@@H]3C[C@]32C1 [Example 65-1, (1aR,11aR)—N-(2,4-difluorobenzyl)-7-hydroxy-6,8-dioxo-1a,2,3,4,6,8-hexahydro-1H-5,11a-methanocyclopropa[h]pyrido[1,2-a][1,4]diazonine-9-carboxamide]
EC50 ([1]; read-out: EC50): 1.73 nM
EC50 [2, 4]: 28.5 nM
EC50 [2, 5]: 0.297 nM
CC50 at 5 days [3, 6]: 8800 nM

SMILES: O=C(NCc1ccc(F)cc1F)c1cn2c(c(O)c1=O)C(=O)N1CC=CC[C@@H]2C1 [Example 47-1, (7R)—N-(2,4-difluorobenzyl)-12-hydroxy-1,11-dioxo-1,6,7,11-tetrahydro-3H-2,7-methanopyrido[1,2-a][1,4]diazonine-10-carboxamide]
EC50 ([1]; read-out: EC50): 4.93 nM
EC50 [2, 4]: 25.7 nM
EC50 [2, 5]: 0.682 nM
CC50 at 5 days [3, 6]: 11100 nM

SMILES: O=C(NCc1ccc(F)cc1F)c1cn2c(c(O)c1=O)C(=O)N1C[C@@H]2CCC[C@@H]1CF [Example 165, (3R,7S)—N-(2,4-difluorobenzyl)-3-(fluoromethyl)-12-hydroxy-1,11-dioxo-1,4,5,6,7,11-hexahydro-3H-2,7-methanopyrido[1,2-a][1,4]diazonine-10-carboxamide]
EC50 ([1]; read-out: EC50): 1.1 nM
EC50 [2, 4]: 7.33 nM
EC50 [2, 5]: 0.351 nM
CC50 at 5 days [3, 6]: 9610 nM

SMILES: C[C@]1(F)CCCN2C[C@@H]1n1cc(C(=O)NCc3c(F)cc(F)cc3F)c(=O)c(O)c1C2=O [Example 61-1, (6S, 7S)-6-fluoro-12-hydroxy-6-methyl-1,11-dioxo-N-(2,4,6-trifluorobenzyl)-1,4,5,6,7,11-hexahydro-3H-2,7-methanopyrido[1,2-a][1,4]diazonine-10-carboxamide]
EC50 ([1]; read-out: EC50): 1.85 nM
EC50 [2, 4]: 72 nM
EC50 [2, 5]: 0.206 nM
CC50 at 5 days [3, 6]: 10300 nM

SMILES: O=C(NCc1ccc(F)cc1F)c1cn2c(c(O)c1=O)C(=O)N1C[C@@H]2CC=C[C@@H]1CF [Example 188]
EC50 [1]: 1.19 nM
EC50 [2, 4]: 3.48 nM
EC50 [2, 5]: 0.421 nM
CC50 at 5 days [3, 6]: 12200 nM

SMILES: C[C@H]1C(F)=CC[C@H]2CN1C(=O)c1c(O)c(=O)c(C(=O)NCc3c(F)cc(F)cc3F)cn12 [Example 154-1, (3S,7S)-4-fluoro-12-hydroxy-3-methyl-1,11-dioxo-N-(2,4,6-trifluorobenzyl)-1,6,7,11-tetrahydro-3H-2,7-methanopyrido[1,2-a][1,4]diazonine-10-carboxamide]
EC50 ([1]; read-out: EC50): 1.64 nM
EC50 [2, 4]: 4.29 nM
EC50 [2, 5]: 0.297 nM
CC50 at 5 days [3, 6]: 25700 nM

SMILES: C[C@H]1CCCN2CC1n1cc(C(=O)NCc3c(F)cc(F)cc3F)c(=O)c(O)c1C2=O (stereo partly drawn) [Example 190, (6S)-12-hydroxy-6-methyl-1,11-dioxo-N-(2,4,6-trifluorobenzyl)-1,4,5,6,7,11-hexahydro-3H-2,7-methanopyrido[1,2-a][1,4]diazonine-10-carboxamide]
EC50 [1]: 1.81 nM
EC50 [2, 4]: 14.2 nM
EC50 [2, 5]: 0.434 nM
CC50 at 5 days [3, 6]: 22800 nM

SMILES: O=C(NCc1ccc(F)cc1F)c1cn2c(c(O)c1=O)C(=O)N1CCCC[C@@]2(CF)C1 [Example 162-1, (7S)—N-(2,4-difluorobenzyl)-7-(fluoromethyl)-12-hydroxy-1,11-dioxo-1,4,5,6,7,11-hexahydro-3H-2,7-methanopyrido[1,2-a][1,4]diazonine-10-carboxamide]
EC50 ([1]; read-out: EC50): 1.14 nM
EC50 [2, 4]: 11.9 nM
EC50 [2, 5]: 0.067 nM
CC50 at 5 days [3, 6]: 16200 nM

SMILES: O=C(NCc1ccc(F)cc1F)c1cn2c(c(O)c1=O)C(=O)N1CCC[C@@H](F)[C@@H]2C1 [Example 172-1, (6R,7S)—N-(2,4-difluorobenzyl)-6-fluoro-12-hydroxy-1,11-dioxo-1,4,5,6,7,11-hexahydro-3H-2,7-methanopyrido[1,2-a][1,4]diazonine-10-carboxamide]
EC50 ([1]; read-out: EC50): 2.4 nM
EC50 [2, 4]: 42.7 nM
EC50 [2, 5]: 0.689 nM
CC50 at 5 days [3, 6]: 15600 nM

SMILES: O=C(NCc1c(F)cc(F)cc1F)c1cn2c(c(O)c1=O)C(=O)N1Cc3ccc(Cl)cc3C[C@H]2C1 (single isomer, unassigned) [Example 127-1]
EC50 ([1]; read-out: EC50): 1.38 nM
EC50 [2, 4]: 2.93 nM
EC50 [2, 5]: 0.324 nM
CC50 at 5 days [3, 6]: 5630 nM

SMILES: O=C1c2c(O)c(=O)c(-c3nnc(Cc4ccc(F)cc4F)s3)cn2[C@H]2CCCCN1C2 [Example 185, (7S)-10-(5-(2,4-difluorobenzyl)-1,3,4-thiadiazol-2-yl)-12-hydroxy-4,5,6,7-tetrahydro-3H-2,7-methanopyrido[1,2-a][1,4]diazonine-1,11-dione]
EC50 ([1]; read-out: EC50): 3.29 nM
EC50 [2, 4]: 4.88 nM
EC50 [2, 5]: 0.984 nM
CC50 at 5 days [3, 6]: 3550 nM

SMILES: O=C(NCc1ccc(F)cc1F)c1cn2c(c(O)c1=O)C(=O)N1CCCC(F)(F)[C@@H]2C1 [Example 16-1, (7S)-N-(2,4-difluorobenzyl)-6,6-difluoro-12-hydroxy-1,11-dioxo-1,4,5,6,7,11-hexahydro-3H-2,7-methanopyrido[1,2-a][1,4]diazonine-10-carboxamide]
EC50 ([1]; read-out: EC50): 2.1 nM
EC50 [2, 4]: 3.22 nM
EC50 [2, 5]: 0.25 nM
CC50 at 5 days [3, 6]: 14400 nM

SMILES: O=C(NCc1c(F)cc(F)cc1F)c1cn2c(c(O)c1=O)C(=O)N1CCCC(CF)C2C1 (single isomer, unassigned) [Example 194-1, 6-(fluoromethyl)-12-hydroxy-1,11-dioxo-N-(2,4,6-trifluorobenzyl)-1,4,5,6,7,11-hexahydro-3H-2,7-methanopyrido[1,2-a][1,4]diazonine-10-carboxamide]
EC50 ([1]; read-out: EC50): 1.39 nM
EC50 [2, 5]: 0.683 nM
EC50 ([2]; read-out: Antiviral Serum Shift RLuc 50% HS, HS/CCM (RPMI media, 10% FBS, 50% HS, 1% P/S), 72-h incubation): 222 nM
CC50 at 5 days [3, 6]: 10800 nM

SMILES: C[C@@H]1CO[C@H](C)[C@H]2CN1C(=O)c1c(O)c(=O)c(C(=O)NCc3ccc(F)cc3F)cn12 [Example 197, (3R,6R,7R)—N-(2,4-difluorobenzyl)-12-hydroxy-3,6-dimethyl-1,11-dioxo-1,3,4,6,7,11-hexahydro-2,7-methanopyrido[1,2-d][1,4,7]oxadiazonine-10-carboxamide]
EC50 ([1]; read-out: EC50): 1.49 nM
EC50 [2, 4]: 8.35 nM
EC50 [2, 5]: 0.589 nM
CC50 at 5 days [3, 6]: 22400 nM

SMILES: C[C@@H]1N2C[C@H](CCC1(F)F)n1cc(C(=O)NCc3c(F)cc(F)cc3F)c(=O)c(O)c1C2=O [Example 154-2, (3S,7S)-4,4-difluoro-12-hydroxy-3-methyl-1,11-dioxo-N-(2,4,6-trifluorobenzyl)-1,4,5,6,7,11-hexahydro-3H-2,7-methanopyrido[1,2-a][1,4]diazonine-10-carboxamide]
EC50 ([1]; read-out: EC50): 1.94 nM
EC50 [2, 4]: 7.14 nM
EC50 [2, 5]: 0.306 nM
CC50 at 5 days [3, 6]: 15200 nM

SMILES: O=C(NCc1c(F)cc(F)cc1F)c1cn2c(c(O)c1=O)C(=O)N1C[C@@H]2CCCC12CC2 [Example 129, (7'S)-12′-hydroxy-1′,11′-dioxo-N-(2,4,6-trifluorobenzyl)-1′,4′,5′,6′,7′,11′-hexahydrospiro[cyclopropane-1,3′-[2,7]methanopyrido[1,2-a][1,4]diazonine]-10′-carboxamide]
EC50 ([1]; read-out: EC50): 1.53 nM
EC50 [2, 4]: 4.21 nM
EC50 [2, 5]: 0.309 nM
CC50 at 5 days ([3]; CC50): 7440 nM

SMILES: O=C(NCc1c(F)cc(F)cc1F)c1cn2c(c(O)c1=O)C(=O)N1C[C@H]2CCc2c(F)cccc21 [Example 43-2, (12R)-1-fluoro-7-hydroxy-6,8-dioxo-N-(2,4,6-trifluorobenzyl)-6,8,13,14-tetrahydro-12H-5,12-methanobenzo[e]pyrido[1,2-a][1,4]diazonine-9-carboxamide]
EC50 ([1]; read-out: EC50): 1.57 nM
EC50 [2, 4]: 0.647 nM
EC50 [2, 5]: 0.289 nM
CC50 at 5 days [3, 6]: 9150 nM

SMILES: C[C@H]1CCC[C@H]2CN1C(=O)c1c(O)c(=O)c(C(=O)NCc3ccc(F)cc3F)cn12 [Example 52-4, (3S, 7S)—N-(2,4-difluorobenzyl)-12-hydroxy-3-methyl-1,11-dioxo-1,4,5,6,7,11-hexahydro-3H-2,7-methanopyrido[1,2-a][1,4]diazonine-10-carboxamide]
EC50 ([1]; read-out: EC50): 1.33 nM
EC50 [2, 4]: 7.54 nM
EC50 [2, 5]: 0.218 nM
CC50 at 5 days [3, 6]: 10300 nM

EC50 ([1]; read-out: EC50): 8.83 nM
SMILES: C[C@@]1(F)CC[C@H]2CN(C1)C(=O)c1c(O)c(=O)c(C(=O)NCc3c(F)cc(F)cc3F)cn12 [Example 132-1, (4R,7S)-4-fluoro-12-hydroxy-4-methyl-1,11-dioxo-N-(2,4,6-trifluorobenzyl)-1,4,5,6,7,11-hexahydro-3H-2,7-methanopyrido[1,2-a][1,4]diazonine-10-carboxamide]
CC50 at 5 days [3, 6]: > 50000 nM
